# Data as given in publication PMC8148378 (Chemical Science, 2019).
# Legend:
# [1] = format: physicochemical
# [2] = tested on: S. aureus ATCC29213; test: MIC determination; format: cell-based; conditions: Staphylococcus aureus, ATCC29213, read-out: MIC S. aureus, ATCC29213
# [3] = tested on: P. aeruginosa WT PA14; test: MIC determination; format: cell-based, Pseudomonas aeruginosa; conditions: for MIC: Pseudomonas aeruginosa, PA14, read-out: MIC P. aeruginosa WT, PA14
# [4] = biological target: T1, E. coli gyrase (Escherichia coli, UniProt P0AES4); test: DNA gyrase supercoiling assay, method a; format: biochemical
# T1 sequence (P0AES4 whole entry): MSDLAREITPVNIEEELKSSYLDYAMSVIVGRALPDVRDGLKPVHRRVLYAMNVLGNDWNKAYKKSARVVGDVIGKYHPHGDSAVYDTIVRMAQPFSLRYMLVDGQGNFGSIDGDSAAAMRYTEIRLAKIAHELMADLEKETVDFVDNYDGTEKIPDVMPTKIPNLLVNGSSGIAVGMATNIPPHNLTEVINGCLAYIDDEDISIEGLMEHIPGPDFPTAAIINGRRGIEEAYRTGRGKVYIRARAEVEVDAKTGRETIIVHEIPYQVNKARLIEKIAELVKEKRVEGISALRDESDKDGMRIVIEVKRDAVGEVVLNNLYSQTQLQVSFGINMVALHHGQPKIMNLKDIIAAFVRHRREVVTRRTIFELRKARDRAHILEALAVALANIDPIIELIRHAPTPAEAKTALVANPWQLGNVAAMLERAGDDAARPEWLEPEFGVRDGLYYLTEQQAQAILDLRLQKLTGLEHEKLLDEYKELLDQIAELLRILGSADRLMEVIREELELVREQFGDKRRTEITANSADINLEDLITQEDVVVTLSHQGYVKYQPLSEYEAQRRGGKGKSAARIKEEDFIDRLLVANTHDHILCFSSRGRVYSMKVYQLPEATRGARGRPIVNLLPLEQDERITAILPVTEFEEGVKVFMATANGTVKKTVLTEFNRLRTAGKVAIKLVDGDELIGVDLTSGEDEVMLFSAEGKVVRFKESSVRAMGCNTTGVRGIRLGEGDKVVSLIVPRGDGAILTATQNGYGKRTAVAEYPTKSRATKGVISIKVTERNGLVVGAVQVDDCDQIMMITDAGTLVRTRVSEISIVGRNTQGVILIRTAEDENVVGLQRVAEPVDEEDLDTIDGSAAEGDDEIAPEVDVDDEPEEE
# [5] = tested on: E. coli ΔtolC; test: MIC determination; format: cell-based; conditions: Escherichia coli, read-out: MIC E. coli ΔtolC
# [6] = tested on: E. coli WT DSM-1116; test: MIC determination; format: cell-based; conditions: Escherichia coli, DSM1116, read-out: MIC E. coli WT, DSM-1116
# [7] = tested on: P. aeruginosa ΔmexAB (PA14ΔmexAB); test: MIC determination; format: cell-based; conditions: Pseudomonas aeruginosa, read-out: MIC P. aeruginosa ΔmexAB
# [8] = biological target: T1, E. coli gyrase; test: DNA gyrase supercoiling assay, method b; format: biochemical; conditions: for fold decrease of gyrase inhibition: compared to 22
# [9] = tested on: E. coli WT-3; test: MIC determination, larger panel; format: cell-based; conditions: Escherichia coli, WT3, read-out: MIC E. coli WT-3
# [10] = tested on: E. cloacae DSM-30054; test: MIC determination, larger panel; format: cell-based; conditions: Enterobacter cloacae, DSM30054, read-out: MIC E. cloacae
# [11] = tested on: K. pneumoniae DSM-30104; test: MIC determination, larger panel; format: cell-based; conditions: Klebsiella pneumoniae, DSM30104, read-out: MIC K. pneumoniae
# [12] = tested on: S. marcescens DSM-30121; test: MIC determination, larger panel; format: cell-based; conditions: Serratia marcescens, DSM30121, read-out: MIC S. marcescens
# [13] = tested on: P. mirabilis DSM-4479; test: MIC determination, larger panel; format: cell-based; conditions: Proteus mirabilis, DSM4479, read-out: MIC P. mirabilis
# [14] = tested on: P. aeruginosa ESBL 2 DSM-46316; test: MIC determination, larger panel; format: cell-based; conditions: Pseudomonas aeruginosa, DSM46316, read-out: MIC P. aeruginosa ESBL 2
# [15] = tested on: P. aeruginosa ESBL 1 DSM-24600; test: MIC determination, larger panel; format: cell-based; conditions: Pseudomonas aeruginosa, DSM24600, read-out: MIC P. aeruginosa ESBL 1
# [16] = tested on: E. aerogenes DSM-30053; test: MIC determination, larger panel; format: cell-based, Enterobacter aerogenes; conditions: Klebsiella aerogenes, DSM30053, read-out: MIC E. aerogenes
# [17] = tested on: A. baumannii DSM-30008; test: MIC determination, larger panel; format: cell-based; conditions: Acinetobacter baumannii, DSM30008, read-out: MIC A. baumannii, DSM-30008
# [18] = tested on: P. dispersa; test: MIC against the AlbD producer; format: cell-based; conditions: Pantoea dispersa, read-out: MIC P. dispersa
# [19] = tested on: E. faecalis ATCC-29212; test: MIC determination, larger panel; format: cell-based; conditions: Enterococcus faecalis, ATCC29212, read-out: MIC E. faecalis
Structure (SMILES),MIC [2] [µg/mL],MIC [3] [µg/mL],MIC [5] [µg/mL],MIC [6] [µg/mL],MIC [7] [µg/mL],MIC [9] [µg/mL],other results
CC(C)Oc1c(NC(=O)c2ccc(NC(=O)[C@H](CC(N)=O)NC(=O)c3ccc(NC(=O)c4ccc([N+](=O)[O-])cc4)cc3)cc2)ccc(C(=O)Nc2ccc(C(=O)O)cc2)c1O [Compound 4],1,> 64,0.125,1,1,–,pKa [1]: < 8; MIC P. aeruginosa WT ([3]; PA14): >64 µg/mL; IC50 [4]: 110 nM
CC(C)Oc1c(NC(=O)c2ccc(NC(=O)[C@H](CC(N)=O)NC(=O)c3ccc(NC(=O)c4ccccc4)cc3)cc2)ccc(C(=O)Nc2ccc(C(=O)O)cc2)c1O [Compound 15],–,–,–,> 64,–,–,–
CC(C)Oc1c(NC(=O)c2ccc(NC(=O)[C@H](CC(N)=O)NC(=O)c3ccc(NC(=O)c4ccc(C(F)(F)F)cc4)cc3)cc2)ccc(C(=O)Nc2ccc(C(=O)O)cc2)c1O [Compound 23],16 to 32,–,–,–,–,–,–
CC(C)Oc1c(NC(=O)c2ccc(NC(=O)[C@H](CC(N)=O)NC(=O)c3ccc(NC(=O)c4ccc(NC(=O)c5ccc([N+](=O)[O-])cc5)cc4)cc3)cc2)ccc(C(=O)Nc2ccc(C(=O)O)cc2)c1O [Compound 24],–,–,–,–,–,–,fold reduced inhibitory activity in the gyrase assay ([8]; compared to 4): 20 fold
CC(C)Oc1c(NC(=O)c2ccc(NC(=O)[C@H](CC(N)=O)NC(=O)c3ccc(NC(=O)c4ccc(C#N)cn4)cc3)cc2)ccc(C(=O)Nc2ccc(C(=O)O)cc2)c1O [Compound 31],–,–,–,–,–,2,–
CC(C)Oc1c(NC(=O)c2ccc(NC(=O)[C@H](CC(N)=O)NC(=O)c3ccc(NC(=O)c4ccc(C#N)s4)cc3)cc2)ccc(C(=O)Nc2ccc(C(=O)O)cc2)c1O [Compound 32],–,–,–,–,–,1,MIC [10]: > 64 µg/mL; MIC [11]: > 64 µg/mL; MIC [12]: > 64 µg/mL; MIC [13]: > 64 µg/mL
C/C(=C\c1ccc(O)cc1)C(=O)Nc1ccc(C(=O)N[C@@H](CC(N)=O)C(=O)Nc2ccc(C(=O)Nc3ccc(C(=O)Nc4ccc(C(=O)O)cc4)c(O)c3OC(C)C)cc2)cc1 [Compound 45],–,–,–,–,–,0.125,MIC [10]: > 64 µg/mL; MIC [14]: 2 µg/mL; MIC [15]: > 64 µg/mL; MIC [16]: 1 µg/mL; MIC [11]: > 64 µg/mL; MIC [12]: 64 µg/mL; MIC [13]: 2 µg/mL
C/C(=C\c1ccc(C#N)cc1)C(=O)Nc1ccc(C(=O)N[C@@H](CC(N)=O)C(=O)Nc2ccc(C(=O)Nc3ccc(C(=O)Nc4ccc(C(=O)O)cc4)c(O)c3OC(C)C)cc2)cc1 [Compound 46],–,–,–,–,–,0.125,MIC [17]: 0.06 µg/mL
CC(C)Oc1cc(C(=O)Nc2ccc(C(=O)O)cc2)ccc1NC(=O)c1ccc(NC(=O)[C@H](CC(N)=O)NC(=O)c2ccc(NC(=O)c3ccc([N+](=O)[O-])cc3)cc2)cc1 [Compound 52],> 64,> 64,0.06,> 64,1,–,–
CC(C)COc1c(NC(=O)c2ccc(NC(=O)[C@H](CC(N)=O)NC(=O)c3ccc(NC(=O)c4ccc([N+](=O)[O-])cc4)cc3)cc2)ccc(C(=O)Nc2ccc(C(=O)O)cc2)c1O [Compound 53],1,> 64,2,> 64,> 64,–,–
Cn1cc(NC(=O)C(CC(N)=O)NC(=O)c2ccc(NC(=O)c3ccc(C#N)cc3)cc2)cc1-c1nc2ccc(C(=O)Nc3ccc(C(=O)O)cc3)c(O)c2[nH]1 (centres unmarked) [Compound 56],–,–,–,–,–,–,fold decrease of gyrase inhibition [8]: approximately 100 fold; IC50 [4]: 10900 nM
CC(C)Oc1c(-n2cc(-c3ccc(NC(=O)C(CC(N)=O)NC(=O)c4ccc(NC(=O)c5ccc(C#N)cc5)cc4)cc3)nn2)ccc(C(=O)Nc2ccc(C(=O)O)cc2)c1O (centres unmarked) [Compound 61],–,–,–,–,–,16,MIC [10]: > 64 µg/mL; MIC [18]: 1 µg/mL; MIC [14]: 16 µg/mL; MIC [19]: 16 µg/mL; fold decrease of gyrase inhibition [8]: ca. 20 fold; MIC [15]: 16 µg/mL; MIC [16]: 1 µg/mL; MIC [11]: > 64 µg/mL; MIC [17]: 8 µg/mL; MIC [12]: > 64 µg/mL; MIC [13]: 16 µg/mL
CC(C)Oc1c(NC(=O)c2ccc(NC(=O)[C@H](CC(N)=O)NC(=O)c3ccc(NC(=O)c4ccc(C#N)cc4)cc3)cc2)ccc(C(=O)O)c1O [Compound 67],–,–,–,–,–,–,fold decrease of gyrase inhibition [8]: more than 100 fold
CC(C)Oc1c(NC(=O)c2ccc(NC(=O)c3ccc(NC(=O)[C@H](CC(N)=O)NC(=O)c4ccc(NC(=O)c5ccc([N+](=O)[O-])cc5)cc4)cc3)c(OC(C)C)c2O)ccc(C(=O)O)c1O [Compound 78],0.05,> 64,0.125,0.5,1,–,IC50 [8]: 200 nM
CC(C)Oc1c(NC(=O)c2ccc(NC(=O)c3ccc(NC(=O)[C@H](CC(N)=O)NC(=O)c4ccc(NC(=O)c5ccc(C#N)cc5)cc4)cc3)c(OC(C)C)c2O)ccc(C(=O)O)c1O [Compound 79],≤ 0.03,2,≤ 0.03,0.25,1,–,IC50 [8]: 600 nM
CC(C)Oc1c(NC(=O)c2ccc(NC(=O)c3ccc(NC(=O)[C@H](CC(N)=O)NC(=O)c4ccc(NC(=O)c5ccc(C#N)cn5)cc4)cc3)c(OC(C)C)c2O)ccc(C(=O)O)c1O [Compound 80],≤ 0.03,> 64,≤ 0.03,0.06,0.5,0.5,MIC [10]: > 64 µg/mL; MIC [14]: > 64 µg/mL; MIC [19]: ≤ 0.03 µg/mL; MIC [15]: > 64 µg/mL; MIC [16]: 1 µg/mL; MIC [17]: 0.25 µg/mL; MIC [12]: > 64 µg/mL
CC(C)Oc1c(NC(=O)c2ccc(NC(=O)c3ccc(NC(=O)[C@H](CC(N)=O)NC(=O)c4ccc(NC(=O)c5ccc(C#N)s5)cc4)cc3)c(OC(C)C)c2O)ccc(C(=O)O)c1O [Compound 81],0.06,> 64,0.06,0.125,2,0.5,MIC [10]: > 64 µg/mL; MIC [14]: > 64 µg/mL; MIC [19]: ≤ 0.03 µg/mL; MIC [15]: > 64 µg/mL; MIC [16]: 1 µg/mL; MIC [11]: 1 µg/mL; MIC [17]: 1 µg/mL; MIC [12]: > 64 µg/mL; MIC [13]: > 64 µg/mL
C/C(=C\c1ccc(C#N)cc1)C(=O)Nc1ccc(C(=O)N[C@@H](CC(N)=O)C(=O)Nc2ccc(C(=O)Nc3ccc(C(=O)Nc4ccc(C(=O)O)c(O)c4OC(C)C)c(O)c3OC(C)C)cc2)cc1 [Compound 82],0.06,1,≤ 0.03,0.125,0.25,–,IC50 [8]: 200 nM
COC(=O)c1ccc(NC(=O)c2ccc(NC(=O)c3ccc(NC(=O)[C@H](CC(N)=O)NC(=O)c4ccc(NC(=O)c5ccc([N+](=O)[O-])cc5)cc4)cc3)c(OC(C)C)c2)cc1 [Compound 129],> 64,> 64,> 64,> 64,> 64,–,–
"O=C(O)c1cn(C2CC2)c2cc(N3CCNCC3)c(F)cc2c1=O [ciprofloxacin, reference compound]",–,–,–,–,–,–,MIC [19]: 1 µg/mL; MIC [15]: 8 µg/mL; MIC [17]: 0.32 µg/mL; MIC [13]: 0.06 µg/mL
